In patent publication US10526322B2, “Inhibitors of kidney-type glutaminase, GLS-1” (CORNELL UNIVERSITY, priority 2014, dated 2020):

Experiments:
GAC = molecular target: T1, GAC (Mus musculus, UniProt D3Z7P3); assay: Real-time GAC enzyme activity assay coupled to glutamate dehydrogenase (NADH fluorescence); format: biochemical; conditions: for concentration inhibiting the GAC isoform compared with parent compound 968: in vitro inhibition, FIG. 9 / FIG. 11
T1 construct: (residues 72-603) was cloned into a pET23a vector; His-tag with thrombin cleavage site (N, cleaved yes); made in house
T1 sequence (D3Z7P3 72-603 isoform D3Z7P3-2): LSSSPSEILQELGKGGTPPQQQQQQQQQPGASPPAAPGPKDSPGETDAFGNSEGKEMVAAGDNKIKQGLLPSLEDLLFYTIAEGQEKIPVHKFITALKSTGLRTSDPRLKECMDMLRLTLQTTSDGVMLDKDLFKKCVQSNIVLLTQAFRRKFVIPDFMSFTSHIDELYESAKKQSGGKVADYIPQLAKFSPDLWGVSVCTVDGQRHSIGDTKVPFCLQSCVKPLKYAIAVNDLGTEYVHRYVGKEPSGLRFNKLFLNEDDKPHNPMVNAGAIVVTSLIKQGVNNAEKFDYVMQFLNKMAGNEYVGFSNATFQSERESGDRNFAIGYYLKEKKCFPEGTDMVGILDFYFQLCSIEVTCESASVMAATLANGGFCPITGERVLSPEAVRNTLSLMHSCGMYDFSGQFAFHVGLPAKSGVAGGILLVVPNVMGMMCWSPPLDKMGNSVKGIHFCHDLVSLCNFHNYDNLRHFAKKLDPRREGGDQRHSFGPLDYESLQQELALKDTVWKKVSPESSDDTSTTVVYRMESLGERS
Protocol: A plasmid encoding the mouse kidney-type glutaminase isoform 2 (GAC, GenBank Accession No. NP_001106854.1, which is hereby incorporated by reference in its entirety) (residues 72-603) was cloned into a pET23a vector containing an N-terminal histidine (His)-tag and thrombin cleavage site. The expressed protein was purified using Co^2+ affinity beads (Clontech), followed by His-tag cleavage with human thrombin (Haemetologic Technologies) overnight at 4° C., and subsequently purified by anion exchange (GE healthcare) and gel filtration chromatography. Purified GAC was stored in a high salt-containing buffer (20 mM Tris-HCl pH 8.5, 500 mM NaCl, 1 mM NaN3) at −80° C., following snap freezing in liquid N2 for long term use. Labeling recombinant GAC with small molecule probes was performed by exchanging 1.5 mg of enzyme into 50 mM HEPES, pH 7.2, and 100 mM NaCl (labeling buffer), using a PD10 desalting column (GE healthcare). The enzyme was then incubated with 50 μM (5-fold excess of enzyme) of either AlexaFluor 488 succinimidyl ester or QSY9 succinimidyl ester (Molecular Probes) for 1 hour at 4° C. After 1 hour, the labeling reaction was quenched with 150 mM Tris-HCl, pH 8.5, and unreacted probe was separated from labeled-enzyme using a PD10 desalting column, eluting labeled-GAC back into the high salt-containing buffer. The stoichiometry of labeling was determined using the probe manufacturer's reported molar absorptivity values and instructions. Briefly, the concentration of GAC was determined by first correcting absorbance at 280 nm (Abs280) for each probe, using the reported correction values (0.11 for AlexaFluor 488 and 0.23 for QSY-9) and their absorbance values at their absorbance maxima (495 nm and 562 nm, respectively). The corrected Abs280 was used along with the experimentally determined molar absorptivity of GAC (ε280=38,850 M−1 cm−1). AlexaFluor 488 and QSY-9 probes were quantified using their respective absorbance maxima and the manufacturer's reported molar absorptivity values (ε495=71,000 M−1 cm−1 and ε562=85,000 M−1 cm−1).
Real-time fluorescence monitoring of 968 binding and GAC activity through production of NADH was performed on a Varian Cary Eclipse Fluorometer, whereas small molecule inhibition and binding titrations were performed in a 96-well format in a Tecan Saphire absorbance and fluorescence plate reader. Samples for monitoring real-time binding of 968 to 488-GAC were prepared by adding 10 μL of varying concentrations of 968 prepared in DMSO to an equilibrated 1 mL sample of 10 nM 488-GAC, while observing 488 fluorescence (490 nm excitation/520 nm emission). Similarly, this method was replicated for monitoring real-time binding of 968 to mutant forms of GAC, namely 488-labeled GAC (GD391K) and 488-GAC (D391K, K316E, R459E). Real-time activity assays monitoring 968 binding and NADH production were prepared in 1 mL samples, where 10 units of glutamate dehydrogenase (Sigma) and 2 mM NAD+ (Sigma) were prepared in 50 mM Tris-Acetate, pH 8.5, 0.1 mM EDTA and equilibrated at 20° C. WT GAC (10 nM) was added and allowed to equilibrate 2 minutes before monitoring the fluorescence emission of 488-GAC (490 nm excitation, 520 nm emission) and NADH (340 nm excitation, 490 nm emission). Appropriate dilutions of 968 or BPTES prepared in DMSO were introduced after 30 seconds and allowed to equilibrate for 2 minutes before a 180 μL solution of K2HPO4 and glutamine was added to make a final concentration of 50 mM K2HPO4 and 20 mM glutamine, to initiate GAC activation. The activity of GAC was measured in a coupled assay, by monitoring the NADH produced by glutamate dehydrogenase, which converts the product of the glutaminase-catalyzed reaction, glutamate, to α-ketoglutarate and ammonia by reducing NAD+ to NADH. […]

[1] = molecular target: T2, 488-GAC (mouse kidney-type glutaminase isoform 2, GAC) (Mus musculus, UniProt D3Z7P3); assay: Real-time binding assay, quenching of 488-GAC fluorescence; conditions: 10 nM 488-GAC, 10 μM BPTES
T2 construct: (residues 72-603) was cloned into a pET23a vector; His-tag with thrombin cleavage site (N, cleaved yes); made in house
T2 sequence (D3Z7P3 72-603 isoform D3Z7P3-2): T1 sequence (D3Z7P3 72-603 isoform D3Z7P3-2)
Protocol: A plasmid encoding the mouse kidney-type glutaminase isoform 2 (GAC, GenBank Accession No. NP_001106854.1, which is hereby incorporated by reference in its entirety) (residues 72-603) was cloned into a pET23a vector containing an N-terminal histidine (His)-tag and thrombin cleavage site. The expressed protein was purified using Co^2+ affinity beads (Clontech), followed by His-tag cleavage with human thrombin (Haemetologic Technologies) overnight at 4° C., and subsequently purified by anion exchange (GE healthcare) and gel filtration chromatography. […] The stoichiometry of labeling was determined using the probe manufacturer's reported molar absorptivity values and instructions. Briefly, the concentration of GAC was determined by first correcting absorbance at 280 nm (Abs280) for each probe, using the reported correction values (0.11 for AlexaFluor 488 and 0.23 for QSY-9) and their absorbance values at their absorbance maxima (495 nm and 562 nm, respectively). The corrected Abs280 was used along with the experimentally determined molar absorptivity of GAC (ε280=38,850 M−1 cm−1). AlexaFluor 488 and QSY-9 probes were quantified using their respective absorbance maxima and the manufacturer's reported molar absorptivity values (ε495=71,000 M−1 cm−1 and ε562=85,000 M−1 cm−1). […]

488-GAC and QSY9-GAC = molecular target: T3, 488-GAC and QSY9-GAC (Mus musculus, UniProt D3Z7P3); assay: FRET assay for GAC tetramer formation; format: binding; conditions: 25 nM 488-GAC and 25 nM QSY9-GAC
T3 construct: (residues 72-603) was cloned into a pET23a vector; His-tag with thrombin cleavage site (N, cleaved yes); made in house
T3 sequence (D3Z7P3 72-603 isoform D3Z7P3-2): T1 sequence (D3Z7P3 72-603 isoform D3Z7P3-2)
Protocol: Fluorescence experiments were performed using a Varian Cary Eclipse Fluorometer in the counting mode. Excitation and emission wavelengths were 490 and 520 nm, respectively. Experiments were all performed using 1-mL samples with continuous stirring at 20° C. in 50 mM Tris-Acetate, pH 8.5, 0.1 mM ethylenediamine tetraacetic acid (EDTA). For wild-type (WT) GAC titrations in the absence of inorganic phosphate, 25 nM 488-GAC was equilibrated with 25 μL of QSY9-GAC (at varying concentrations) and allowed to equilibrate for 10 minutes, at which point 75 μL of the appropriate concentration of unlabeled WT GAC was added to provide a 10-fold excess over labeled-GAC. To test whether the purified GAC mutants can form oligomers with WT GAC, 200 nM QSY9-GAC (D391K) or 200 nM QSY9-GAC (D391K, K316E, R459E) was added to an equilibrated sample of 20 nM 488-WT GAC. When assaying the effects of BPTES and 968 on oligomer formation, BPTES or 968 was added following equilibration of a sample of 25 nM QSY9-WT GAC and 25 nM 488-WT GAC. Both BPTES and 968 were prepared in DMSO, and appropriate dilutions were made so that less than 2% (v/v) DMSO was added to an experimental sample.

Row | SMILES | concentration inhibiting the GAC isoform compared with parent compound 968 (GAC) | other results
1 | [O-][NH2+]c1cc(CNc2ccc3ccccc3c2)ccc1N1CCCC1 [SU-29] | lower concentration than the parent compound, 968 | 
2 | CN(C)c1ccc(C2Nc3ccc4cc5ccccc5cc4c3C3=C2C(=O)CC(C)(C)C3)cc1Br (centres unmarked) [SU-14] | lower concentration than the parent compound, 968 | 
3 | CN(C)c1ccc(CNc2cccc3ccccc23)cc1Br [SU-20] | lower concentration than the parent compound, 968 | 
4 | O=C(Cc1ccccc1)Nc1nnc(CCSCCc2nnc(NC(=O)Cc3ccccc3)s2)s1 [BPTES] |  | effect on 488-GAC fluorescence [1]: does not directly affect; inhibition of GAC activity (GAC; 10 nM 488-GAC, 10 μM BPTES): strongly inhibits; effect on GAC tetramer formation (488-GAC emission in mixture with QSY9-GAC) (488-GAC and QSY9-GAC): immediate quenching
5 | CC1(C)CC(=O)C2=C(C1)c1c(ccc3cc4ccccc4cc13)NC2c1ccc(C2(C(F)(F)F)N=N2)cc1 (centres unmarked) [SU-24] | lower concentration than the parent compound, 968 | 
6 | CN(C)c1ccc(C2Nc3ccc4ccccc4c3C3=C2C(=O)CC(c2ccccc2)C3)cc1Br (centres unmarked) [SU-10] | lower concentration than the parent compound, 968 | 
7 | CCN(CC)c1ccc(CNc2ccc3ccccc3c2)cc1[NH2+][O-] [SU-31] | lower concentration than the parent compound, 968 | 
8 | CC1(C)CC(=O)C2=C(C1)c1cc(-c3ccccc3)ccc1NC2c1ccc(-c2ccccc2)cc1 (centres unmarked) [SU-15] | lower concentration than the parent compound, 968 | 
9 | CN(C)c1ccc(C2Nc3c(ccc4ccccc34)C3=C2C(=O)CC(C)(C)C3)cc1Br (centres unmarked) [SU-1] | lower concentration than the parent compound, 968 | 
